Test results from patent US8772448B2, “Peptides immunoreactive with autoantibodies from patients suffering from rheumatoid arthritis” (Stichting Voor de Technische Wetenschappen, priority 1996, dated 2014).
Where no end group is shown, it is not given here. [ ]: non-standard residue; d: D form. Cit = NC(=O)NCCC[C@H](N)C(=O)O

What was measured:
[1] = test system: antibodies in SSC (systemic scleroderma) sera; assay: ELISA of coupled peptides with SSC sera; assay type: binding, human; details: n = 50
Protocol: (§1) Detection by Means of ELISA
(§2) Via an N-oxysuccinimide surface the peptides were covalently coupled to the wells of 96-well microtitre plates (Costar amide binding plates) in an amount of 1 ? g/well. Coupling took place for 16 hours at 4EC and pH 9.0. The plates were blocked for 1 hour with 2% bovine serum albumin. The sera were diluted 200 times in a diluent (0.3% BSA, 350 mM NaCl, 10 mM Tris-HCl pH 7.6, 1% vol./vol. Triton X-100, 0.5% w./vol. Na-deoxycholate, 0.1% SDS) supplemented with 10% normal rabbit serum, and incubated for one hour at room temperature. After washing the plates (3 times with PBS containing 0.05 by vol. of Tween® 20), 100 ? l of antihuman IgG conjugated with peroxidase (Dako P214), 1000 times diluted in dilution buffer, was added to the wells. After incubation for 1 hour at room temperature, the plates were washed 3 times with PBS/Tween®, and bound antibodies were detected with tetramethyl benzidine as a substrate. After 10 minutes the reaction was stopped by adding 100 ? l of 2 M sulphuric acid per well. Readout occurred at 450 nm. Sera having an OD450 of 0.2, after deduction of the blank for the respective serum (a well without a coupled peptide), were considered to be positive.

[2] = test system: antibodies in pSS (primary Sjögren's syndrome) sera; assay: ELISA of coupled peptides with pSS sera; assay type: binding, human; details: n = 50
Protocol: as §1, §2

[3] = test system: antibodies in SLE (systemic lupus erythematosus) sera; assay: ELISA of coupled peptides with SLE sera; assay type: binding, human; details: n = 50
Protocol: as §1, §2

[4] = test system: antibodies in PM/DM (polymyositis/dermatomyositis) sera; assay: ELISA of coupled peptides with PM/DM sera; assay type: binding, human; details: n = 50
Protocol: as §1, §2

[5] = test system: autoimmune antibodies in sera from patients suffering from rheumatoid arthritis; assay: ELISA of coupled peptides with RA sera; assay type: binding, human; details: n = 134 RA sera, positive = OD450 of 0.2 after deduction of blank; for RA sera: number of positive sera: sera diluted 200 times
Protocol: as §1
as §2, with “positive. […]” for “positive.”

[6] = test system: antibodies in sera from patients suffering from various infectious diseases; assay: ELISA with sera from patients suffering from various infectious diseases; assay type: binding, human; details: 308 tested sera
[7] = test system: recombinant monoclonal antibody described by applicants; assay: Reactivity of peptides with the recombinant monoclonal antibody; assay type: binding
[8] = test system: antibodies in control sera from patients suffering from rheumatic diseases other than RA; assay: ELISA of coupled peptides with control sera; assay type: binding, human; details: for control sera (%) positive / control sera: number of positive sera: n = 154, rheumatic diseases other than RA
Protocol: as §1, §2
In total, 288 sera from patients suffering from rheumatoid diseases were used, 132 of which were from patients suffering from rheumatoid arthritis.

Row | Sequence | SSC: number of positive sera [1] | pSS: number of positive sera [2] | SLE (%) positive [3] [%] | SLE: number of positive sera [3] | PM/DM: number of positive sera [4] | RA sera (%) positive [5] [%] | RA sera (%) positive ([5]; listed as Formula II) | RA sera: number of positive sera [5] | infectious disease sera: number positive [6] | specificity in respect of infectious disease sera [6] [%] | reactivity with the recombinant monoclonal antibody [7] | control sera (%) positive [8] [%] | control sera: number of positive sera [8] | percentage of false positives ([8]; other autoimmune diseases and healthy individuals) | pSS (%) positive [2] [%] | PM/DM (%) positive [4] [%]
1 | SHQESTXGRSRGRSGRSGS (SHQEST[Cit]GRSRGRSGRSGS-NH2; N-terminus assumed; SMILES C[C@@H](O)[C@H](NC(=O)[C@H](CO)NC(=O)[C@H](CCC(=O)O)NC(=O)[C@H](CCC(N)=O)NC(=O)[C@H](Cc1c[nH]cn1)NC(=O)[C@@H](N)CO)C(=O)N[C@@H](CCCNC(N)=O)C(=O)NCC(=O)N[C@@H](CCCNC(=N)N)C(=O)N[C@@H](CO)C(=O)N[C@@H](CCCNC(=N)N)C(=O)NCC(=O)N[C@@H](CCCNC(=N)N)C(=O)N[C@@H](CO)C(=O)NCC(=O)N[C@@H](CCCNC(=N)N)C(=O)N[C@@H](CO)C(=O)NCC(=O)N[C@@H](CO)C(N)=O) [cfc1] | 0 | 0 | 2 | 1 | 0 | 36 | about 36% | 49 | 9 | 97 | reactive | 0.6 | 1 | less than 2% | – | –
2 | SHQESTXGRSRGXSGRSGS (SHQEST[Cit]GRSRG[Cit]SGRSGS-NH2; N-terminus assumed; SMILES C[C@@H](O)[C@H](NC(=O)[C@H](CO)NC(=O)[C@H](CCC(=O)O)NC(=O)[C@H](CCC(N)=O)NC(=O)[C@H](Cc1c[nH]cn1)NC(=O)[C@@H](N)CO)C(=O)N[C@@H](CCCNC(N)=O)C(=O)NCC(=O)N[C@@H](CCCNC(=N)N)C(=O)N[C@@H](CO)C(=O)N[C@@H](CCCNC(=N)N)C(=O)NCC(=O)N[C@@H](CCCNC(N)=O)C(=O)N[C@@H](CO)C(=O)NCC(=O)N[C@@H](CCCNC(=N)N)C(=O)N[C@@H](CO)C(=O)NCC(=O)N[C@@H](CO)C(N)=O) [cfc8] | 0 | 1 | – | 0 | 1 | 41 | – | 55 | – | – | – | 0.6 | 1 | – | 2 | 2
3 | SHQESTXGRSXGRSGRSGS (SHQEST[Cit]GRS[Cit]GRSGRSGS-NH2; N-terminus assumed; SMILES C[C@@H](O)[C@H](NC(=O)[C@H](CO)NC(=O)[C@H](CCC(=O)O)NC(=O)[C@H](CCC(N)=O)NC(=O)[C@H](Cc1c[nH]cn1)NC(=O)[C@@H](N)CO)C(=O)N[C@@H](CCCNC(N)=O)C(=O)NCC(=O)N[C@@H](CCCNC(=N)N)C(=O)N[C@@H](CO)C(=O)N[C@@H](CCCNC(N)=O)C(=O)NCC(=O)N[C@@H](CCCNC(=N)N)C(=O)N[C@@H](CO)C(=O)NCC(=O)N[C@@H](CCCNC(=N)N)C(=O)N[C@@H](CO)C(=O)NCC(=O)N[C@@H](CO)C(N)=O) [cfc7] | 0 | 1 | – | 0 | 1 | 45 | – | 60 | – | – | – | 0.6 | 1 | – | 2 | 2
4 | SHQESTXGXSRGRSGRSGS (SHQEST[Cit]G[Cit]SRGRSGRSGS-NH2; N-terminus assumed; SMILES C[C@@H](O)[C@H](NC(=O)[C@H](CO)NC(=O)[C@H](CCC(=O)O)NC(=O)[C@H](CCC(N)=O)NC(=O)[C@H](Cc1c[nH]cn1)NC(=O)[C@@H](N)CO)C(=O)N[C@@H](CCCNC(N)=O)C(=O)NCC(=O)N[C@@H](CCCNC(N)=O)C(=O)N[C@@H](CO)C(=O)N[C@@H](CCCNC(=N)N)C(=O)NCC(=O)N[C@@H](CCCNC(=N)N)C(=O)N[C@@H](CO)C(=O)NCC(=O)N[C@@H](CCCNC(=N)N)C(=O)N[C@@H](CO)C(=O)NCC(=O)N[C@@H](CO)C(N)=O) [cfc6] | 0 | 2 | – | 0 | 1 | 48 | – | 65 | – | – | – | 0.6 | 1 | – | 4 | 2
